This is an account of results in patent US20260274853A1, “BIFUNCTIONAL COMPOUNDS CONTAINING PYRIMIDINE DERIVATIVES FOR DEGRADING CYCLIN-DEPENDENT KINASE 2 VIA UBIQUITIN PROTEASOME PATHWAY” (NIKANG THERAPEUTICS, INC., priority 2022, published 2026).

Assay [1] has as its target T1, CDK2 (Homo sapiens, UniProt P24941).
T1 construct: High-Throughput Measurement of Cellular Endogenous CDK2; endogenous in cells; host or cells: OVCAR3
Briefly: Inhibition of CDK2: phospho-Rb (S807/811) HTRF measurement in OVCAR3 cells. Type of assay: cell-based. To be noted: 24 h compound treatment, read-out: pRb (nM), IC50 in pRB(S807/811) assay. A general note: Time-resolved FRET reads energy transfer from a long-lived donor to a nearby acceptor.

Assay [2] addresses T1, CDK2. Briefly: CDK2 HTRF assay: cellular endogenous CDK2 level in OVCAR3 cells. To be noted: 24 hours compound treatment, read-out: DC50 (half maximal degradation concentration of CDK2). Type of assay: cell-based. The protocol:
Effects of compounds on cellular CDK2 level can be monitored by a high-throughput HTRF assay or traditional Western Blot assay.
To determine half maximal degradation concentration (DC50) values of compounds, cellular CDK2 level was measured in 96-well format using HTRF total CDK2 cellular kit (Cat #64CDK2TPEG) from Cisbio.
On Day 1, OVCAR3 cells were seeded into 96-well tissue-culture treated plates at 20,000 cells/well in 200 μL and incubated overnight at 37° C. in CO2 atmosphere. On Day 2 cells were treated with compounds at concentration ranging from 0.3 to 10,000 nM using HP D300 digital dispenser. 24 hours after compound treatment, cell culture media was removed by flicking the plate and tapping the plate against clean paper towel. Immediately 30 μL 1× lysis buffer was supplemented from the kit and the plate was incubated at room temperature on shaker for 30 min. After homogenization by pipetting up and down, 8 μL cell lysate from 96-well cell culture plate was transferred to 384-well small volume white detection plate. 2 μL premixed detection solution was added and the plate was covered with sealer. To prepare the detection solution, d2 conjugated-CDK2 antibody and Eu-cryptate conjugated CDK2 antibody were diluted into detection buffer following manufacturer's instruction. Detection plates were incubated overnight at room temperature and read on ClarioStar (BMG Labtech) in TR-FRET mode (665 nM and 620 nM). The TR-FRET ratio (665 nM/620 nM) was plotted against the compound concentration and normalized to DMSO controls. Half maximal degradation concentration (DC50) values were calculated with a four-parameter logistic fit using GraphPad Prism (version 8; La Jolla, CA).
In the table below, A indicates a DC50 of less than 0.1 μM; B indicates a DC50 of greater than or equal to 0.1 μM but less than 0.5 μM; C indicates a DC50 of greater than or equal to 0.5 μM but less than 1 μM; and D indicates a DC50 of greater than or equal to 1 μM but less than 10 μM.

Regarding `O=C1CCN(c2ccc(N3CCN(Cc4cccc(S(=O)(=O)N5CCC(Nc6ncc(C(F)(F)F)c(-c7cnn(CC(F)(F)F)c7)n6)CC5)c4)CC3)nc2)C(=O)N1` [Example 41, 1-(6-(4-(3-((4-((4-(1-(2,2,2-trifluoro-ethyl)-1H-pyrazol-4-yl)-5-(trifluoro-methyl)pyrimidin-2-yl)amino)-piperidin-1-yl)sulfonyl)benzyl)-piperazin-1-yl)pyridin-3-yl)dihydro-pyrimidine-2,4(1H,3H)-dione], the IC50 on CDK2 [1] was < 100 nM. Moreover, the DC50 on CDK2 [2] was < 100 nM.

Consider `Cn1cc(-c2nc(NC3CCN(S(=O)(=O)c4cccc(CN5CCN(c6cc7c(cc6F)C(=O)N(C6CCC(=O)NC6=O)C7=O)CC5)c4)CC3)ncc2C(F)(F)F)cn1` (centres unmarked) [Example 5, 2-(2,6-dioxopiperidin-3-yl)-5-fluoro-6-(4-(3-((4-((4-(1-methyl-1H-pyrazol-4-yl)-5-(trifluoromethyl)pyrimidin-2-yl)-amino)piperidin-1-yl)sulfonyl)-benzyl)-piperazin-1-yl)isoindoline-1,3-dione], for which the IC50 on CDK2 [1] was < 100 nM. For the same molecule, the DC50 on CDK2 [2] fell in the range of 100 to 500 nM.

`CC(Cc1cccc(S(=O)(=O)N2CCC(Nc3ncc(C(F)(F)F)c(-c4cnn(-c5ccccc5F)c4)n3)CC2)c1)N1CCC(c2ccc3c(N4CCC(=O)NC4=O)nn(C)c3c2)CC1` (centres unmarked) [Example 96, 1-(6-(1-(1-(3-((4-((4-(1-(2-fluoro-phenyl)-1H-pyrazol-4-yl)-5-(trifluoro-methyl)pyrimidin-2-yl)amino)-piperidin-1-yl)sulfonyl)phenyl)propan-2-yl)-piperidin-4-yl)-1-methyl-1H-indazol-3-yl)dihydropyrimidine-2,4(1H,3H)-dione]: at CDK2 [1], the IC50 was < 100 nM. The DC50 on CDK2 [2] was < 100 nM.

Consider `O=C1CCC(N2CC3CCC(C2)N3Cc2cccc(S(=O)(=O)N3CCC(Nc4ncc(C(F)(F)F)c(-c5cnn(CC(F)(F)F)c5)n4)CC3)c2)C(=O)N1` (centres unmarked) [Example 65, 3-(8-(3-((4-((4-(1-(2,2,2-trifluoro-ethyl)-1H-pyrazol-4-yl)-5-(trifluoro-methyl)pyrimidin-2-yl)amino)-piperidin-1-yl)sulfonyl)benzyl)-3,8-diazabicyclo-[3.2.1]octan-3-yl)-piperidine-2,6-dione], for which, at CDK2 [1], the IC50 was < 100 nM. At CDK2 [2], the DC50 is < 100 nM.

Turning to `Cn1nc(N2CCC(=O)NC2=O)c2ccc(C3CCN(CC4CCCC(S(=O)(=O)N5CCC(Nc6ncc(C(F)(F)F)c(-c7cnn(CC(F)(F)F)c7)n6)CC5)C4)CC3)cc21` (centres unmarked) [Example 89, 1-(1-methyl-6-(1-((3-((4-((4-(1-(2,2,2-trifluoroethyl)-1H-pyrazol-4-yl)-5-(trifluoromethyl)pyrimidin-2-yl)amino)-piperidin-1-yl)sulfonyl)-cyclohexyl)-methyl)piperidin-4-yl)-1H-indazol-3-yl)dihydropyrimidine-2,4(1H,3H)-dione], the IC50 on CDK2 [1] was < 100 nM. The DC50 on CDK2 [2] is < 100 nM.

As to `O=C1CCC(N2Cc3cc(C4CN(Cc5cccc(S(=O)(=O)N6CCC(Nc7ncc(C(F)(F)F)c(-c8cnn(CC(F)(F)F)c8)n7)CC6)c5)C4)ccc3C2=O)C(=O)N1` (centres unmarked) [Example 3, 3-(1-oxo-5-(1-(3-((4-((4-(1-(2,2,2-trifluoroethyl)-1H-pyrazol-4-yl)-5-(trifluoromethyl)pyrimidin-2-yl)-amino)-piperidin-1-yl)sulfonyl)-benzyl)azetidin-3-yl)isoindolin-2-yl)piperidine-2,6-dione], the IC50 at CDK2 [1] was < 100 nM. Besides, the DC50 at CDK2 [2] was < 100 nM.

As to `C[C@@H]1CN(S(=O)(=O)c2cccc(CN3CCC(c4ccc5c(N6CCC(=O)NC6=O)nn(C)c5c4)CC3)c2)CC[C@@H]1Nc1ncc(C(F)(F)F)c(-c2cnn(CC(F)(F)F)c2)n1` [Example 34, 1-(1-methyl-6-(1-(3-(((3R,4S)-3-methyl-4-((4-(1-(2,2,2-trifluoroethyl)-1H-pyrazol-4-yl)-5-(trifluoromethyl)-pyrimidin-2-yl)amino)piperidin-1-yl)-sulfonyl)benzyl)piperidin-4-yl)-1H-indazol-3-yl)dihydropyrimidine-2,4(1H,3H)-dione], the IC50 on CDK2 [1] fell in the range of 100 to 500 nM. Moreover, the DC50 at CDK2 [2] is < 100 nM.

`CC(Cc1cccc(S(=O)(=O)N2CCC(Nc3ncc(C(F)(F)F)c(-c4cnn(CC(F)(F)F)c4)n3)CC2)c1)N1CCC(c2ccc3c(N4CCC(=O)NC4=O)nn(C)c3c2)CC1` (centres unmarked) [Example 93, 1-(1-methyl-6-(1-(1-(3-((4-((4-(1-(2,2,2-trifluoroethyl)-1H-pyrazol-4-yl)-5-(trifluoromethyl)pyrimidin-2-yl)amino)-piperidin-1-yl)sulfonyl)-phenyl)propan-2-yl)piperidin-4-yl)-1H-indazol-3-yl)dihydropyrimidine-2,4(1H,3H)-dione]: the IC50 at CDK2 [1] is < 100 nM. Further, the DC50 on CDK2 [2] is < 100 nM.

For the molecule `O=C1CCC(c2ccc(N3CCN(Cc4cccc(S(=O)(=O)N5CCC(Nc6ncc(C(F)(F)F)c(-c7cnn(CC(F)(F)F)c7)n6)CC5)c4)CC3)c(C(F)(F)F)c2)C(=O)N1` (centres unmarked) [Example 23, 3-(4-(4-(3-((4-((4-(1-(2,2,2-trifluoro-ethyl)-1H-pyrazol-4-yl)-5-(trifluoro-methyl)pyrimidin-2-yl)amino)-piperidin-1-yl)sulfonyl)benzyl)-piperazin-1-yl)-3-(trifluoromethyl)-phenyl)piperidine-2,6-dione], at CDK2 [1], the IC50 lay within 100 to 500 nM. On CDK2 [2], the DC50 was in the range of 100 to 500 nM.

Regarding `CN1CCC(n2cc(-c3nc(NC4CCN(S(=O)(=O)c5cccc(CN6CCC(c7ccc8c(N9CCC(=O)NC9=O)nn(C)c8c7)CC6)c5)CC4)ncc3C(F)(F)F)cn2)CC1` [Example 79, 1-(1-methyl-6-(1-(3-((4-((4-(1-(1-methylpiperidin-4-yl)-1H-pyrazol-4-yl)-5-(trifluoromethyl)pyrimidin-2-yl)-amino)piperidin-1-yl)sulfonyl)-benzyl)-piperidin-4-yl)-1H-indazol-3-yl)dihydro-pyrimidine-2,4(1H,3H)-dione], on CDK2 [1], the IC50 was < 100 nM. Also, the DC50 at CDK2 [2] is < 100 nM.

Consider `O=C1CCC(NS(=O)(=O)N2CCC(Nc3ncc(C(F)(F)F)c(-c4cnn(CC(F)(F)F)c4)n3)CC2)C(=O)N1` (centres unmarked) [Example 83, N-(2,6-dioxopiperidin-3-yl)-4-((4-(1-(2,2,2-trifluoroethyl)-1H-pyrazol-4-yl)-5-(trifluoromethyl)pyrimidin-2-yl)-amino)piperidine-1-sulfonamide], for which the IC50 on CDK2 [1] lay in the range of 100 to 500 nM. Moreover, the DC50 on CDK2 [2] is < 100 nM.

`Cn1nc(N2CCC(=O)NC2=O)c2ccc(C3CCN(Cc4cccc(S(=O)(=O)N5CCC(Nc6ncc(C(F)(F)F)c(-c7cnn(CC(F)(F)F)c7)n6)CC5)c4)CC3)cc21` [Example 4, 1-(1-methyl-6-(1-(3-((4-((4-(1-(2,2,2-trifluoroethyl)-1H-pyrazol-4-yl)-5-(trifluoromethyl)pyrimidin-2-yl)amino)-piperidin-1-yl)sulfonyl)-benzyl)-piperidin-4-yl)-1H-indazol-3-yl)dihydro-pyrimidine-2,4(1H,3H)-dione]: the IC50 at CDK2 [1] was < 100 nM. The DC50 at CDK2 [2] was < 100 nM.

For the molecule `CC(C)(O)Cn1cc(-c2nc(NC3CCN(S(=O)(=O)c4cccc(CN5CCN(c6ccc(N7CCC(=O)NC7=O)cc6)CC5)c4)CC3)ncc2C(F)(F)F)cn1` [Example 24, 1-(4-(4-(3-((4-((4-(1-(2-hydroxy-2-methylpropyl)-1H-pyrazol-4-yl)-5-(trifluoromethyl)pyrimidin-2-yl)amino)-piperidin-1-yl)sulfonyl)benzyl)-piperazin-1-yl)phenyl)dihydro-pyrimidine-2,4(1H,3H)-dione], the IC50 at CDK2 [1] is < 100 nM. Moreover, the DC50 at CDK2 [2] is < 100 nM.
